# Species: Rattus norvegicus
# Assay: DrugMatrix - Regimen: Daily Repeat
# Assay type: toxicity, organism-based, Sprague-Dawley
# Set-up: regimen Daily Repeat, gender Male, age 6-8 weeks
# Conditions: in vivo, po, route oral GAVAGE, […]; for ABSOLUTE BASOPHIL / ABSOLUTE EOSINOPHIL / ABSOLUTE LYMPHOCYTE / ABSOLUTE MONOCYTE / ABSOLUTE SEGMENTED NEUTROPHIL / BASOPHIL / EOSINOPHIL / ERYTHROCYTE COUNT / HEMATOCRIT / HEMOGLOBIN / LEUKOCYTE COUNT / LYMPHOCYTE / MEAN CORPUSCULAR HEMOGLOBIN / MEAN CORPUSCULAR HEMOGLOBIN CONCENTRATION / MEAN CORPUSCULAR VOLUME / MONOCYTE / NEUTROPHIL / NUCLEATED RED BLOOD CELLS / PLATELET COUNT: tissue Blood; for ALANINE AMINOTRANSFERASE / ALBUMIN / ALKALINE PHOSPHATASE / ASPARTATE AMINOTRANSFERASE / BLOOD UREA NITROGEN / CARBON DIOXIDE / CHLORIDE / CHOLESTEROL / CREATINE PHOSPHOKINASE / CREATININE / GLUCOSE / LACTATE DEHYDROGENASE / LIPASE / PHOSPHORUS / POTASSIUM / SODIUM / TOTAL BILIRUBIN / TOTAL PROTEIN / URIC ACID: tissue Plasma
# [1] = 13 mg/kg, 120 h, dose level Low, time 5 day
# [2] = 40 mg/kg, 72 h, dose level High, time 3 day
# [3] = 40 mg/kg, 120 h, dose level High, time 5 day
smiles,measurement,setting,value
CN(C)c1nc(N(C)C)nc(N(C)C)n1 [ALTRETAMINE],ABSOLUTE BASOPHIL,[1],0 CELLS/uL
same,ABSOLUTE EOSINOPHIL,[1],0 CELLS/uL
same,ABSOLUTE LYMPHOCYTE,[1],9932 CELLS/uL
same,ABSOLUTE MONOCYTE,[1],0 CELLS/uL
same,ABSOLUTE SEGMENTED NEUTROPHIL,[1],334.67 CELLS/uL
same,BASOPHIL,[1],0%
same,EOSINOPHIL,[1],0%
same,ERYTHROCYTE COUNT,[1],5.3 x10E6/uL
same,HEMATOCRIT,[1],32.5%
same,HEMOGLOBIN,[1],12.67 G/DL
same,LEUKOCYTE COUNT,[1],10.27 x10E3/uL
same,LYMPHOCYTE,[1],96.33%
same,MEAN CORPUSCULAR HEMOGLOBIN,[1],23.93 pg
same,MEAN CORPUSCULAR HEMOGLOBIN CONCENTRATION,[1],38.97 G/DL
same,MEAN CORPUSCULAR VOLUME,[1],61.4 fL
same,MONOCYTE,[1],0%
same,NEUTROPHIL,[1],3.67%
same,NUCLEATED RED BLOOD CELLS,[1],0 /100WBC
same,PLATELET COUNT,[1],759.33 x10E3/uL
same,ALANINE AMINOTRANSFERASE,[1],60.67 u/L
same,ALBUMIN,[1],4.13 G/DL
same,ALKALINE PHOSPHATASE,[1],323.67 u/L
same,ASPARTATE AMINOTRANSFERASE,[1],87 u/L
same,BLOOD UREA NITROGEN,[1],13.33 mg/dL
same,CARBON DIOXIDE,[1],29.67 mmol/L
same,CHLORIDE,[1],98 MEQ/L
same,CHOLESTEROL,[1],69.67 mg/dL
same,CREATINE PHOSPHOKINASE,[1],230.33 u/L
same,CREATININE,[1],0.15 mg/dL
same,GLUCOSE,[1],150 mg/dL
same,LACTATE DEHYDROGENASE,[1],137.67 u/L
same,LIPASE,[1],22 u/L
same,PHOSPHORUS,[1],10.3 mg/dL
same,POTASSIUM,[1],5.84 MEQ/L
same,SODIUM,[1],143.3 MEQ/L
same,TOTAL BILIRUBIN,[1],0.1 mg/dL
same,TOTAL PROTEIN,[1],5.83 G/DL
same,URIC ACID,[1],0.87 mg/dL
same,ABSOLUTE BASOPHIL,[2],0 CELLS/uL
same,ABSOLUTE EOSINOPHIL,[2],41 CELLS/uL
same,ABSOLUTE LYMPHOCYTE,[2],13401 CELLS/uL
same,ABSOLUTE MONOCYTE,[2],108.67 CELLS/uL
same,ABSOLUTE SEGMENTED NEUTROPHIL,[2],749.33 CELLS/uL
same,BASOPHIL,[2],0%
same,EOSINOPHIL,[2],0.33%
same,ERYTHROCYTE COUNT,[2],5.98 x10E6/uL
same,HEMATOCRIT,[2],37.43%
same,HEMOGLOBIN,[2],14.53 G/DL
same,LEUKOCYTE COUNT,[2],14.3 x10E3/uL
same,LYMPHOCYTE,[2],93.67%
same,MEAN CORPUSCULAR HEMOGLOBIN,[2],24.33 pg
same,MEAN CORPUSCULAR HEMOGLOBIN CONCENTRATION,[2],38.83 G/DL
same,MEAN CORPUSCULAR VOLUME,[2],62.7 fL
same,MONOCYTE,[2],0.67%
same,NEUTROPHIL,[2],5.33%
same,NUCLEATED RED BLOOD CELLS,[2],0 /100WBC
same,PLATELET COUNT,[2],1084 x10E3/uL
same,ALANINE AMINOTRANSFERASE,[2],107.67 u/L
same,ALBUMIN,[2],4.17 G/DL
same,ALKALINE PHOSPHATASE,[2],335.33 u/L
same,ASPARTATE AMINOTRANSFERASE,[2],98.67 u/L
same,BLOOD UREA NITROGEN,[2],12.33 mg/dL
same,CARBON DIOXIDE,[2],26.33 mmol/L
same,CHLORIDE,[2],100.67 MEQ/L
same,CHOLESTEROL,[2],73 mg/dL
same,CREATINE PHOSPHOKINASE,[2],457.67 u/L
same,CREATININE,[2],0.17 mg/dL
same,GLUCOSE,[2],160.67 mg/dL
same,LACTATE DEHYDROGENASE,[2],170.67 u/L
same,LIPASE,[2],10.67 u/L
same,PHOSPHORUS,[2],10.97 mg/dL
same,POTASSIUM,[2],6.05 MEQ/L
same,SODIUM,[2],140.73 MEQ/L
same,TOTAL BILIRUBIN,[2],0.2 mg/dL
same,TOTAL PROTEIN,[2],5.73 G/DL
same,URIC ACID,[2],1.97 mg/dL
same,ABSOLUTE BASOPHIL,[3],0 CELLS/uL
same,ABSOLUTE EOSINOPHIL,[3],0 CELLS/uL
same,ABSOLUTE LYMPHOCYTE,[3],8752.67 CELLS/uL
same,ABSOLUTE MONOCYTE,[3],0 CELLS/uL
same,ABSOLUTE SEGMENTED NEUTROPHIL,[3],580.67 CELLS/uL
same,BASOPHIL,[3],0%
same,EOSINOPHIL,[3],0%
same,ERYTHROCYTE COUNT,[3],5.98 x10E6/uL
same,HEMATOCRIT,[3],36.53%
same,HEMOGLOBIN,[3],14.1 G/DL
same,LEUKOCYTE COUNT,[3],9.33 x10E3/uL
same,LYMPHOCYTE,[3],94.33%
same,MEAN CORPUSCULAR HEMOGLOBIN,[3],23.67 pg
same,MEAN CORPUSCULAR HEMOGLOBIN CONCENTRATION,[3],38.6 G/DL
same,MEAN CORPUSCULAR VOLUME,[3],61.23 fL
same,MONOCYTE,[3],0%
same,NEUTROPHIL,[3],5.67%
same,NUCLEATED RED BLOOD CELLS,[3],0 /100WBC
same,PLATELET COUNT,[3],779.67 x10E3/uL
same,ALANINE AMINOTRANSFERASE,[3],65.33 u/L
same,ALBUMIN,[3],4 G/DL
same,ALKALINE PHOSPHATASE,[3],406 u/L
same,ASPARTATE AMINOTRANSFERASE,[3],87.67 u/L
same,BLOOD UREA NITROGEN,[3],12.67 mg/dL
same,CARBON DIOXIDE,[3],34 mmol/L
same,CHLORIDE,[3],97.67 MEQ/L
same,CHOLESTEROL,[3],55.33 mg/dL
same,CREATINE PHOSPHOKINASE,[3],274.33 u/L
same,CREATININE,[3],0.15 mg/dL
same,GLUCOSE,[3],151 mg/dL
same,LACTATE DEHYDROGENASE,[3],133.67 u/L
same,LIPASE,[3],10 u/L
same,PHOSPHORUS,[3],10.63 mg/dL
same,POTASSIUM,[3],5.18 MEQ/L
same,SODIUM,[3],142.9 MEQ/L
same,TOTAL BILIRUBIN,[3],0.17 mg/dL
same,TOTAL PROTEIN,[3],5.77 G/DL
same,URIC ACID,[3],0.47 mg/dL
